These results are taken from US11427594B2, “Non brain penetrant A2A inhibitors and methods for use in the treatment of cancers” (iTeos Belgium SA, priority 2018, dated 2022).

Each structure is given as a SMILES string. Like-named read-outs stand apart in the source and are kept apart here.

For one data set, the target named is T1, A2A receptor (Homo sapiens, UniProt P29274).
T1 construct: host or cells: HEK-293
Briefly: Inhibition of cAMP production in HEK cells (LANCE Ultra cAMP, TR-FRET). It counts as cell-based. Conditions: HEK-293 cells with stable transfection of A2A receptor. As to the method: When the A2A receptor is activated, is induces the production of cAMP. The present assay thus aims at showing that cAMP production is inhibited in HEK cells in response to their exposure to the compounds of the invention. HEK-293 cells with a stable transfection of A2A receptor were bought from PerkinElmer® (#ES-011-C). Cells were cultured in EMEM medium (Lonza, #BE12-611F) supplemented with 10% FBS (Lonza, #DE14-801F) and 200 μg/mL of G418 (Tocris, #4131) at 37° C. and 5% CO2. Fresh media without the selection marker was added on the day immediately before the experiment to stop selection pressure. cAMP inhibition and antagonist IC50 determination were accessed using the LANCE® Ultra cAMP Kit from PerkinElmer® (#TRF0262) on white half area 96 well plates (PerkinElmer®, #6005560). The assays were conducted in two different stimulation buffers: • a) normal with 1×HBSS (Gibco®, #141750-95), 5 mM HEPES (Lonza, #BE17-737E), 0.1% BSA and 25 μM Rolipram and • b) HSA with 1×HBSS (Gibco®, #141750-95), 5 mM HEPES (Lonza, #BE17-737E), 2% Human Serum Albumin (Sigma-Aldrich®—A1653), 30 μM of EHNA (Tocris—#1261) and 100 μM Rolipram. Stimulation buffer b) mimics the human situation by increasing the amount of albumin present in the assay. Compounds of the present invention were diluted 100× in either of the buffers depending on the assay performed. A total of 1000 cells per well were pre-incubated for 10 minutes with the compounds of the present invention before adding the corresponded EC80 of A2A agonist (3 nM of NECA in normal buffer) or 5 μM of Adenosine (in HAS buffer) for a total reaction time of 30 minutes. The total volume of the reaction was 20 μl (10 μl of cells, 5 μl of antagonist and 5 μl of agonist). The reaction was finalized by adding 10 μl of 4×EU-cAMP tracer working solution and 10 μl of 4× ULight-anti-cAMP working solution. The TR-FRET signal was measured after 1 hour using a Spectramax Paradigm (Molecular Devices).

Data set [1] in a line: Permeability and efflux in Caco-2 cells. It counts as in vitro ADME. The following applies: human, Caco-2 monolayer, bidirectional transport, pH 7.4. As to the method:
The transport buffer (TB, pH 7.4) used in the study is Hank's Buffered Saline Solution (HBSS, Gibco, Cat #14025-076) with 10 mM HEPES at pH 7.4. Fetal bovine serum (FBS) (Corning, Cat #Corning-35-076-CV, or other vendors), Minimum Essential Media (MEM) (Gibco, Cat #41500-034) as well as its supplements are purchased from Invitrogen (Carlsbad, Calif., USA). Caco-2 cell line (Cat #HTB-37) is purchased from the ATCC (Rockville, Md., USA). The organic solvents used in the study are purchased from Sigma Aldrich (St. Louis, Mo., USA). For reference compounds (fenoterol, propranolol and digoxin) and test compounds, 0.4 mM intermediate solutions are prepared by diluting 10 mM or other appropriate concentrations of DMSO stock solutions with DMSO. 2 μM dosing solutions for reference compounds and test compounds are prepared by spiking the appropriate volume of intermediate solution to TB with and without 1 μM Zosuquidar. The final concentration of DMSO is no more than 1% (v/v). Caco-2 cells are grown in MEM supplemented with 2 mM L-glutamine, 10% FBS, 100 U/mL penicillin-G and 100 μg/mL streptomycin. The cells are incubated at 37° C., 5% CO2 and relatively saturated humidity. After reaching 80-90% confluency, the cells are gently detached with 0.05% trypsin-EDTA solution. Cells at passage 30-50 are seeded on the 96-well BD insert system (Cat #359274) at the density of 1×10^5 cells/cm2 and cultured for 21-28 days with medium changed every 4-5 days. TB and dosing solutions were pre-warmed to 37° C. before transport assay. The cell monolayer was washed twice with HBSS containing 10 mM HEPES. For A-B (apical to basolateral) directional transport assay, 75 μL dosing solution is added to the apical well. Fill each basolateral well with 250 μL TB. For B-A (basolateral to apical) directional transport assay, 250 μL of dosing solution is added to the basolateral well after filling each apical well with 75 μL TB. Test compound(s) and digoxin are tested at 2 μM in the presence or absence of 1 μM zosuquidar bidirectionally in duplicate. Atenolol and propranolol are tested at 2 μM in the absence of zosuquidar in A to B direction in duplicate. The plates are incubated for 120 minutes at 37° C. with 5% C02 and saturated humidity. The time zero samples are generated by mixing 50 μL initial dosing solution of test compound or reference compound with 100 μL TB and 250 μL quench solution (acetonitrile (ACN) or other appropriate solvent with internal standard(s), based on the bioanalytical method development). At 120 minutes, 150 μL of solution is collected from each A-B receiver well followed by addition of 250 μL quench solution to get A-B receiver sample. And for other samples (A-B donor, B-A donor and receiver), 50 μL of solution is collected from each corresponding well followed by addition of 250 μL quench solution and 100 μL TB. All samples are vortex-mixed and centrifuged at 3220 g for 20 minutes. Subsequently, supernatant is diluted with ultra pure water for LC-MS/MS analysis. The concentrations of test compound in all samples are determined by LC-MS/MS and expressed as peak area ratio of analyte to internal standard. The concentration of samples is expressed using the peak area ratio of Analyte to Internal Standard (Analyte/IS). The apparent permeability coefficient (Papp) is calculated using the following equation: Papp=VR/(Area*Time)*(CR/C0) wherein VR is the solution volume in the receiver chamber (0.075 mL on the apical side, 0.25 mL on the basolateral side); Area is the surface area for the transport, i.e. 0.0804 cm2 for the area of the monolayer; Time is incubation time, expressed in seconds, 2 h=2×3600 s; C0 is the initial concentration in the donor chamber; CR is the final concentrations in receiver chamber. The efflux ratio is calculated using the following equation: Efflux ratio=[…]) where Papp (A-B) and Papp (B-A) are the Papp values of compound in Apical to Basolateral and Basolateral to Apical directional transport, respectively.

Setting [2] is: HSA stimulation buffer, 5 μM Adenosine as agonist, 2.0% HSA, read-out: IC50 (nM) (5 μM Adenosine as agonist, 2.0% HSA).
[3] abbreviates: normal stimulation buffer, 3 nM NECA as agonist, 0.1% BSA, read-out: IC50 (nM) (3 nM NECA as agonist, 0.1% BSA).

T1 sequence (P29274 whole entry): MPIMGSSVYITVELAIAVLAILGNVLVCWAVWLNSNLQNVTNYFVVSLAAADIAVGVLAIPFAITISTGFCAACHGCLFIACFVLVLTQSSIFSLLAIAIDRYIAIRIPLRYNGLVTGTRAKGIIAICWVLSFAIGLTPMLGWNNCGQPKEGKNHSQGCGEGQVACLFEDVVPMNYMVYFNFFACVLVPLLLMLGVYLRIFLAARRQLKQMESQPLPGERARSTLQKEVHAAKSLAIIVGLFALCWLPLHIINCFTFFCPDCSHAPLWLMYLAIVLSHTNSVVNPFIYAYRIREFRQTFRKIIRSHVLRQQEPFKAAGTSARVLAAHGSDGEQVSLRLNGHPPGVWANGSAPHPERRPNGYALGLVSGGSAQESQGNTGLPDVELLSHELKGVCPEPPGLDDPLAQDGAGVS

Turning to `C[S@+]([O-])CCOc1cc(N2CCN(CCNc3nc(N)n4nc(-c5ccco5)nc4n3)CC2)c(F)cc1F` [Compound 10, (S)—N5-(2-(4-(2,4-difluoro-5-(2-(methylsulfinyl)ethoxy)phenyl)piperazin-1-yl)ethyl)-2-(furan-2-yl)-[1,2,4]triazolo[1,5-a][1,3,5]triazine-5,7-diamine], the IC50 on A2A receptor (setting [2]) amounted to 25 nM; at A2A receptor (setting [3]) it was 0.2 nM. In addition, the efflux ratio at 120 min, 2 μM in data set [1] is greater than 900.
In the case of `C[S@@+]([O-])CCOc1cc(N2CCN(CCNc3nc(N)n4nc(-c5ccco5)nc4n3)CC2)c(F)cc1F` [Compound 11, (R)—N5-(2-(4-(2,4-difluoro-5-(2-(methylsulfinyl)ethoxy)phenyl)piperazin-1-yl)ethyl)-2-(furan-2-yl)-[1,2,4]triazolo[1,5-a][1,3,5]triazine-5,7-diamine], the IC50 at A2A receptor (setting [2]) amounted to 41 nM; on A2A receptor (setting [3]), 0.4 nM. Besides, in data set [1], the efflux ratio at 120 min, 2 μM is greater than 600.
For `C[S@+]([O-])CCOc1cc(N2CCN(CCn3ncc4c3nc(N)n3nc(-c5ccco5)nc43)CC2)c(F)cc1F` [Compound 12, (S)-7-(2-(4-(2,4-difluoro-5-(2-(methylsulfinyl)ethoxy)phenyl)piperazin-1-yl)ethyl)-2-(furan-2-yl)-7H-pyrazolo[4,3-e][1,2,4]triazolo[1,5-c]pyrimidin-5-amine], in that order: 162 nM, 0.4 nM and greater than 140.
For the molecule `C[S@@+]([O-])CCOc1cc(N2CCN(CCn3ncc4c3nc(N)n3nc(-c5ccco5)nc43)CC2)c(F)cc1F` [Compound 13, (R)-7-(2-(4-(2,4-difluoro-5-(2-(methylsulfinyl)ethoxy)phenyl)piperazin-1-yl)ethyl)-2-(furan-2-yl)-7H-pyrazolo[4,3-e][1,2,4]triazolo[1,5-c]pyrimidin-5-amine], the IC50 is 131 nM at A2A receptor (setting [2]) and 0.5 nM at A2A receptor (setting [3]). In addition, the efflux ratio at 120 min, 2 μM in data set [1] is greater than 100.
For the molecule `Nc1nc(NCCN2CCN(c3cc(O[C@H]4CC[S@@+]([O-])CC4)c(F)cc3F)CC2)nc2nc(-c3ccco3)nn12` [Compound 14, (1s,4s)-4-(5-(4-(2-((7-amino-2-(furan-2-yl)-[1,2,4]triazolo[1,5-a][1,3,5]triazin-5-yl)amino)ethyl)piperazin-1-yl)-2,4-difluorophenoxy)tetrahydro-2H-thiopyran 1-oxide], the 50% inhibitory concentration (IC50) at A2A receptor (setting [2]) was determined as 71 nM; on A2A receptor (setting [3]), 0.7 nM. The efflux ratio at 120 min, 2 μM in data set [1] was greater than 900.
With `Nc1nc(NCCN2CCN(c3ccc(C(=O)N4CC[S+]([O-])CC4)cc3F)CC2)nc2nc(-c3ccco3)nn12` [Compound 18, (4-(4-(2-((7-amino-2-(furan-2-yl)-[1,2,4]triazolo[1,5-a][1,3,5]triazin-5-yl)amino)ethyl)piperazin-1-yl)-3-fluorophenyl)(1-oxidothiomorpholino)methanone], the results for the IC50 at A2A receptor (setting [2]) and on A2A receptor (setting [3]) were 632 nM and 0.5 nM, respectively. In data set [1], the efflux ratio at 120 min, 2 μM is greater than 80.
For `Nc1nc(NCCN2CCN(c3ccc(O[C@H]4CC[S@@+]([O-])CC4)cc3F)CC2)nc2nc(-c3ccco3)nn12` [Compound 19], in that order: 106 nM, 0.8 nM and greater than 110.
For `Cn1c(=O)n(CCN2CCN(c3ccc(OCC[S+](C)[O-])cc3F)CC2)c2nc(N)n3nc(-c4ccco4)nc3c21` (stereo not drawn) [Compound 20, 5-amino-3-(2-(4-(2-fluoro-4-(2-(methylsulfinyl)ethoxy)phenyl)piperazin-1-yl)ethyl)-8-(furan-2-yl)-1-methyl-1H-[1,2,4]triazolo[5,1-i]purin-2(3H)-one], in that order: 72 nM, 0.4 nM and greater than 300.
For `Cn1c(=O)n(CCN2CCN(c3cc(OC4CCNC4=O)c(F)cc3F)CC2)c2nc(N)n3nc(-c4ccco4)nc3c21` (stereo not drawn) [Compound 21, 5-amino-3-(2-(4-(2,4-difluoro-5-((2-oxopyrrolidin-3-yl)oxy)phenyl)piperazin-1-yl)ethyl)-8-(furan-2-yl)-1-methyl-1H-[1,2,4]triazolo[5,1-i]purin-2(3H)-one], in that order: 178 nM, 0.4 nM and greater than 150.
